Test results taken from patent US11510887B2, “Sobetirome in the treatment of myelination diseases” (Oregon Health & Science University, priority 2013, dated 2022).

Legend:
[1] = test system: corpus callosum of mice following injection of lysolecithin; experiment: Lysolecithin toxin model of focal demyelination; type: in vivo, C57BL/6 mice; settings: 8 days after lysolecithin injection, daily i.p. from 7 days before to 8 days after, sobetirome 1.0 mg/kg/day, T3 0.4 mg/kg/day
Protocol: FIG. 1: Sobetirome reduced demyelination in the corpus callosum of mice following injection of lysolecithin. Top, BlackGold® stain is specific for myelin fibers and cresyl violet is used as a counterstain. Mice received stereotactic injections of 2 μL of PBS or 2% lysolecithin in the corpus callosum. A white arrow indicates the path of the injection needle and a black box indicates the lesion site. An enlarged image of the boxed lesion site is shown to the right. Bottom, brain sections of 30 μm were stained with FluoroMyelin™, anti-PDGFR-α and DAPI. Hypothyroidism was induced with drinking water treatment, and both hypothyroid and control mice received vehicle injections. T3 (0.4 mg/kg) and sobetirome (1 mg/kg) were administered by daily i.p. injections starting 7 days before stereotactic injection of lysolecithin. Mice were euthanized 8 days after stereotactic injection of 2% lysolecithin, and brains were harvested and processed for histological analysis.
Lysolecithin was injected into the corpus callosum using stereotactic equipment at the x, y, z coordinates of +1.000, +1.050, and +2.000 mm from the Bregma point using a beveled needle with the bevel facing caudally. To minimize trauma, 2 μL of 2% lysolecithin or 2 μL of PBS was injected over four minutes using a micropump injector and the beveled needle was held in place for five minutes before withdrawal. […]

C57BL/6 mice with EAE = experiment: EAE induced with MOG 35-55 peptide; type: in vivo, C57BL/6 female mice
Protocol: FIG. 2: Sobetirome reduces demyelination in mice with EAE. […] EAE was induced in female mice with MOG 35-55 peptide. On day 17 post immunization, mice were randomized based on their EAE scores and daily i.p. injections of sobetirome (n=8) or vehicle (n=8) were started. Mice were euthanized after 11 days of treatment and spinal cords were prepared for histological evaluation. The mean percentage of ventrolateral demyelination for vehicle treated mice was 17.25 (SD+/−7.09) and 9.11 (SD+/−4.96) for sobetirome (p<0.01).
This study was performed to assess the effects of sobetirome on EAE in C57BL/6 female mice immunized with MOG 35-55 peptide. Seventeen days after immunization, at peak of clinical disease, mice were randomized to receive daily injections of sobetirome (1 mg/kg/day) or vehicle. After 11 days of treatment, mice were euthanized and processed for histologic examination. […] This is because the degree of inflammation within the spinal cords was similar between the two groups (Table 1) and much of the short term paralysis that occurs in EAE is secondary to effects of inflammation on neural function. […] Much of the effect appears related to protection of axons and myelin from damage (FIG. 3). Thus, sobetirome has a neuroprotective effect that decreases axonal damage and demyelination.

| SMILES | areas of demyelination compared with vehicle [1] | % CD4 Staining (T cell marker) (C57BL/6 mice with EAE; immunofluorescent staining of lumbosacral spinal cord sections, vehicle 1.01) [%] | % CD11b Staining (macrophage marker) (C57BL/6 mice with EAE; immunofluorescent staining of lumbosacral spinal cord sections, vehicle 3.89) [%] | EAE clinical scores versus vehicle (C57BL/6 mice with EAE; sobetirome 1 mg/kg/day, 11 days of treatment from day 17 after immunization) | demyelination in lateral columns of the lumbosacral cord versus vehicle (C57BL/6 mice with EAE; sobetirome 1 mg/kg/day, 11 days of treatment, p<0.01) | mean percentage of ventrolateral demyelination (area of damage in ventrolateral white matter) (C57BL/6 mice with EAE; spinal cord, after 11 days of daily i.p. treatment started day 17 post immunization, n=8, vehicle 17.25 (SD+/−7.09), p<0.01) |
| --- | --- | --- | --- | --- | --- | --- |
| Cc1cc(OCC(=O)O)cc(C)c1Cc1ccc(O)c(C(C)C)c1 [Sobetirome] | much smaller areas of demyelination | 1.24 | 5.76 | did not differ significantly | significantly less demyelination | 9.11 (SD+/−4.96) % |
| N[C@@H](Cc1cc(I)c(Oc2ccc(O)c(I)c2)c(I)c1)C(=O)O [T3, triiodothyronine] | much smaller areas of demyelination | – | – | – | – | – |
